Test results reported in patent US20230398130A1, “METHODS AND COMPOSITIONS FOR DIFFERENTIATING STEM CELLS” (Massachusetts Institute of Technology, priority 2020, published 2023).

Legend:
ISC-enriched organoids [1] = assay: Primary screen, 384-well 2.5-D organoid differentiation (ENR+CD, 6 days): basal lysozyme secretion (LYZ.NS); format: cell-based, murine; conditions: primary screen; for Dose.FC.LYZ.NS: FC vs plate median; for Z.LYZ.NS: standard z score; for SSMD.LYZ.NS: strictly standardized mean difference
Description: (§1) High-throughput screening.

ISC-enriched organoids [2] = assay: Primary screen, 384-well 2.5-D organoid differentiation (ENR+CD, 6 days): carbachol-induced lysozyme secretion (LYZ.S); format: cell-based, murine; conditions: primary screen; for Dose.FC.LYZ.S: FC vs plate median; for Z.LYZ.S: standard z score; for SSMD.LYZ.S: strictly standardized mean difference
Description: as §1

ISC-enriched organoids [3] = assay: Primary screen, 384-well 2.5-D organoid differentiation (ENR+CD, 6 days, Target Selective Inhibitor Library, vs whole-plate median): ATP (CellTiter-Glo 3D, CTG); conditions: primary screen; for Dose.FC.CTG: FC vs plate median; for Z.CTG: standard z score; for SSMD.CTG: strictly standardized mean difference
[4] = 1st of the 4 dose lines of the treatment (dose not given)
[5] = 2nd of the 4 dose lines of the treatment (dose not given)
[6] = 3rd of the 4 dose lines of the treatment (dose not given)
[7] = 4th of the 4 dose lines of the treatment (dose not given)

## O=C(O)CNC(=O)c1c(O)c2ccccc2n(Cc2ccccc2)c1=O [IOX2]
ISC-enriched organoids [1]; Dose 0.08 uM
  Dose.FC.LYZ.NS: 0.029 log 2 fold change
  Z.LYZ.NS: 0.254
ISC-enriched organoids [1]; Dose 0.40 uM
  Dose.FC.LYZ.NS: 0.028 log 2 fold change
  Z.LYZ.NS: 0.246
ISC-enriched organoids [1]; Dose 2.00 uM
  Dose.FC.LYZ.NS: 0.043 log 2 fold change
  Z.LYZ.NS: 0.376
ISC-enriched organoids [1]; Dose 10.00 uM
  Dose.FC.LYZ.NS: −0.045 log 2 fold change
  Z.LYZ.NS: −0.388
ISC-enriched organoids [1]; [4]
  SSMD.LYZ.NS: 0.296
ISC-enriched organoids [1]; [5]
  SSMD.LYZ.NS: 0.182
ISC-enriched organoids [1]; [6]
  SSMD.LYZ.NS: 0.408
ISC-enriched organoids [1]; [7]
  SSMD.LYZ.NS: −0.420
ISC-enriched organoids [2]; Dose 0.08 uM
  Dose.FC.LYZ.S: 0.047 log 2 fold change
ISC-enriched organoids [2]; Dose 0.40 uM
  Dose.FC.LYZ.S: 0.071 log 2 fold change
ISC-enriched organoids [2]; Dose 2.00 uM
  Dose.FC.LYZ.S: 0.001 log 2 fold change
ISC-enriched organoids [2]; Dose 10.00 uM
  Dose.FC.LYZ.S: −0.049 log 2 fold change
ISC-enriched organoids [2]; [4]
  Z.LYZ.S: 0.305
  SSMD.LYZ.S: 0.359
ISC-enriched organoids [2]; [5]
  Z.LYZ.S: 0.456
  SSMD.LYZ.S: 0.428
ISC-enriched organoids [2]; [6]
  Z.LYZ.S: 0.005
  SSMD.LYZ.S: 0.006
ISC-enriched organoids [2]; [7]
  Z.LYZ.S: −0.314
  SSMD.LYZ.S: −0.298
ISC-enriched organoids [3]; Dose 0.08 uM
  Dose.FC.CTG: 0.149 log 2 fold change
  Z.CTG: 0.356
ISC-enriched organoids [3]; Dose 0.40 uM
  Dose.FC.CTG: 0.078 log 2 fold change
  Z.CTG: 0.185
ISC-enriched organoids [3]; Dose 2.00 uM
  Dose.FC.CTG: 0.097 log 2 fold change
  Z.CTG: 0.232
ISC-enriched organoids [3]; Dose 10.00 uM
  Dose.FC.CTG: 0.001 log 2 fold change
  Z.CTG: 0.002
ISC-enriched organoids [3]; [4]
  SSMD.CTG: 0.501
ISC-enriched organoids [3]; [5]
  SSMD.CTG: 0.264
ISC-enriched organoids [3]; [6]
  SSMD.CTG: 0.287
ISC-enriched organoids [3]; [7]
  SSMD.CTG: 0.003

## Oc1ccc2ccccc2c1SSc1c(O)ccc2ccccc12 [IPA-3]
ISC-enriched organoids [1]; Dose 0.08 uM
  Dose.FC.LYZ.NS: 0.004 log 2 fold change
  Z.LYZ.NS: 0.031
ISC-enriched organoids [1]; Dose 0.40 uM
  Dose.FC.LYZ.NS: 0.003 log 2 fold change
  Z.LYZ.NS: 0.028
ISC-enriched organoids [1]; Dose 2.00 uM
  Dose.FC.LYZ.NS: −0.001 log 2 fold change
  Z.LYZ.NS: −0.010
ISC-enriched organoids [1]; Dose 10.00 uM
  Dose.FC.LYZ.NS: −0.021 log 2 fold change
  Z.LYZ.NS: −0.186
ISC-enriched organoids [1]; [4]
  SSMD.LYZ.NS: 0.027
ISC-enriched organoids [1]; [5]
  SSMD.LYZ.NS: 0.026
ISC-enriched organoids [1]; [6]
  SSMD.LYZ.NS: −0.008
ISC-enriched organoids [1]; [7]
  SSMD.LYZ.NS: −0.175
ISC-enriched organoids [2]; Dose 0.08 uM
  Dose.FC.LYZ.S: 0.064 log 2 fold change
ISC-enriched organoids [2]; Dose 0.40 uM
  Dose.FC.LYZ.S: −0.031 log 2 fold change
ISC-enriched organoids [2]; Dose 2.00 uM
  Dose.FC.LYZ.S: 0.067 log 2 fold change
ISC-enriched organoids [2]; Dose 10.00 uM
  Dose.FC.LYZ.S: −0.054 log 2 fold change
ISC-enriched organoids [2]; [4]
  Z.LYZ.S: 0.413
  SSMD.LYZ.S: 0.356
ISC-enriched organoids [2]; [5]
  Z.LYZ.S: −0.202
  SSMD.LYZ.S: −0.184
ISC-enriched organoids [2]; [6]
  Z.LYZ.S: 0.431
  SSMD.LYZ.S: 0.324
ISC-enriched organoids [2]; [7]
  Z.LYZ.S: −0.347
  SSMD.LYZ.S: −0.305
ISC-enriched organoids [3]; Dose 0.08 uM
  Dose.FC.CTG: 0.219 log 2 fold change
  Z.CTG: 0.524
ISC-enriched organoids [3]; Dose 0.40 uM
  Dose.FC.CTG: −0.332 log 2 fold change
  Z.CTG: −0.793
ISC-enriched organoids [3]; Dose 2.00 uM
  Dose.FC.CTG: −0.084 log 2 fold change
  Z.CTG: −0.202
ISC-enriched organoids [3]; Dose 10.00 uM
  Dose.FC.CTG: −0.054 log 2 fold change
  Z.CTG: −0.128
ISC-enriched organoids [3]; [4]
  SSMD.CTG: 0.818
ISC-enriched organoids [3]; [5]
  SSMD.CTG: −0.408
ISC-enriched organoids [3]; [6]
  SSMD.CTG: −0.316
ISC-enriched organoids [3]; [7]
  SSMD.CTG: −0.172

## C#Cc1cccc(Nc2ncnc3cc4c(cc23)OCCOCCOCCO4)c1 [Icotinib]
ISC-enriched organoids [1]; [4]
  SSMD.LYZ.NS: 0.227
ISC-enriched organoids [1]; [5]
  SSMD.LYZ.NS: −0.710
ISC-enriched organoids [1]; [6]
  SSMD.LYZ.NS: −1.321
ISC-enriched organoids [1]; [7]
  SSMD.LYZ.NS: −2.654
ISC-enriched organoids [2]; [4]
  Z.LYZ.S: 0.609
  SSMD.LYZ.S: 0.689
ISC-enriched organoids [2]; [5]
  Z.LYZ.S: −0.583
  SSMD.LYZ.S: −0.544
ISC-enriched organoids [2]; [6]
  Z.LYZ.S: −1.572
  SSMD.LYZ.S: −1.726
ISC-enriched organoids [2]; [7]
  Z.LYZ.S: −2.708
  SSMD.LYZ.S: −1.917
ISC-enriched organoids [3]; Dose 0.08 uM
  Z.CTG: −0.047
ISC-enriched organoids [3]; Dose 0.40 uM
  Z.CTG: −0.146
ISC-enriched organoids [3]; Dose 2.00 uM
  Z.CTG: −0.970
ISC-enriched organoids [3]; Dose 10.00 uM
  Z.CTG: −2.552
ISC-enriched organoids [3]; [4]
  SSMD.CTG: −0.065
ISC-enriched organoids [3]; [5]
  SSMD.CTG: −0.162
ISC-enriched organoids [3]; [6]
  SSMD.CTG: −0.865
ISC-enriched organoids [3]; [7]
  SSMD.CTG: −3.189

## CNC(=O)[C@H](Cc1c[nH]c2ccccc12)NC(=O)[C@@H](CC(=O)NO)CC(C)C [Ilomastat (GM6001, Galardin)]
ISC-enriched organoids [1]; Dose 0.08 uM
  Dose.FC.LYZ.NS: 0.055 log 2 fold change
  Z.LYZ.NS: 0.482
ISC-enriched organoids [1]; Dose 0.40 uM
  Dose.FC.LYZ.NS: −0.011 log 2 fold change
  Z.LYZ.NS: −0.092
ISC-enriched organoids [1]; Dose 2.00 uM
  Dose.FC.LYZ.NS: 0.007 log 2 fold change
  Z.LYZ.NS: 0.064
ISC-enriched organoids [1]; Dose 10.00 uM
  Dose.FC.LYZ.NS: −0.106 log 2 fold change
  Z.LYZ.NS: −0.919
ISC-enriched organoids [1]; [4]
  SSMD.LYZ.NS: 0.305
ISC-enriched organoids [1]; [5]
  SSMD.LYZ.NS: −0.056
ISC-enriched organoids [1]; [6]
  SSMD.LYZ.NS: 0.066
ISC-enriched organoids [1]; [7]
  SSMD.LYZ.NS: −0.635
ISC-enriched organoids [2]; Dose 0.08 uM
  Dose.FC.LYZ.S: 0.214 log 2 fold change
ISC-enriched organoids [2]; Dose 0.40 uM
  Dose.FC.LYZ.S: 0.117 log 2 fold change
ISC-enriched organoids [2]; Dose 2.00 uM
  Dose.FC.LYZ.S: 0.024 log 2 fold change
ISC-enriched organoids [2]; Dose 10.00 uM
  Dose.FC.LYZ.S: −0.078 log 2 fold change
ISC-enriched organoids [2]; [4]
  Z.LYZ.S: 1.385
  SSMD.LYZ.S: 1.175
ISC-enriched organoids [2]; [5]
  Z.LYZ.S: 0.754
  SSMD.LYZ.S: 0.580
ISC-enriched organoids [2]; [6]
  Z.LYZ.S: 0.153
  SSMD.LYZ.S: 0.164
ISC-enriched organoids [2]; [7]
  Z.LYZ.S: −0.502
  SSMD.LYZ.S: −0.329
ISC-enriched organoids [3]; Dose 0.08 uM
  Dose.FC.CTG: 0.197 log 2 fold change
  Z.CTG: 0.470
ISC-enriched organoids [3]; Dose 0.40 uM
  Dose.FC.CTG: 0.163 log 2 fold change
  Z.CTG: 0.389
ISC-enriched organoids [3]; Dose 2.00 uM
  Dose.FC.CTG: 0.091 log 2 fold change
  Z.CTG: 0.216
ISC-enriched organoids [3]; Dose 10.00 uM
  Dose.FC.CTG: −0.110 log 2 fold change
  Z.CTG: −0.264
ISC-enriched organoids [3]; [4]
  SSMD.CTG: 0.482
ISC-enriched organoids [3]; [5]
  SSMD.CTG: 0.406
ISC-enriched organoids [3]; [6]
  SSMD.CTG: 0.321
ISC-enriched organoids [3]; [7]
  SSMD.CTG: −0.348
